Measurements published in patent publication US20230357310A1, “Saponin derivatives with improved therapeutic window” (priority 2019, published 2023).
pIC50: −log10 of the molar value. Like-named read-outs stand apart in the source and are kept apart here.

Legend:
[1] = system: EGFR expressing cells (HeLa); assay: cells; settings: for pIC50: Homo sapiens, HeLa, read-out: IC50 endosomal escape enhancing activity, in HeLa or A431, + 5 pM EGF-dianthin, summary range; for endosomal escape enhancing activity (enhancement of cytotoxicity of ADC / effector molecules): summary statement in the description
human red blood cells = assay: cells; settings: for IC50: read-out: IC50 nM (hemolysis); for hemolytic activity compared with unmodified saponin: comparison in words
Protocol: Red blood cells (RBCs) were isolated from a buffy coat using a Ficoll gradient. The obtained RBC pellet (˜4-5 ml) was washed 2× with 50 ml DPBS (without Ca^2+/Mg^2+, PAN-Biotech GmbH). Cells were pelleted by centrifugation for 10 min, 800×g at RT. RBC were counted and resuspended at 500.000.000 c/ml in DPBS (without Ca^2+/Mg^2+), based on total cell count.
Saponin dilutions were prepared in DPBS (with Ca^2+/Mg^2+, PAN-Biotech GmbH), at 1.11×final strength. For positive lysis control a 0.02% Triton-X100 solution was prepared in DPBS^+/+. Of all compound solutions 135 μl was dispensed/well in a 96 well V-bottom plate. To this 15 μl RBC suspension was added and mixed shortly (10 sec-600 rpm). The plate was incubated 30 min at RT, with gentle agitation. Afterwards the plate was spun for 10 min at 800×g to pellet the RBC and 100-120 μl supernatant was transferred to a standard 96 wp (96 well-plate).

HeLa cells [2] = assay: cells; settings: for cytotoxicity compared with unmodified saponin: comparison in words
[3] = Critical micellar concentration (ANS fluorescence); format: physicochemical; settings: for CMC compared with native (underivatised) saponin: comparison in words
Protocol: The critical micellar concentration (CMC) of saponins derived from Saponaria officinalis (SO) (Table A7) and derived from Quillaja saponaria (QS) (Table A8, and Table A9) was determined by the method of DeVendittis et al. (A fluorimetric method for the estimation of the critical micelle concentration of surfactants, Analytical Biochemistry, Volume 115, Issue 2, August 1981, Pages 278-286) as follows:
The emission spectrum of 8-Anilinonaphthalene-1-sulfonic acid (ANS) in either purified water (MQ) or PBS (Dulbecco's PBS+/+) was determined at dry weight concentrations of saponins ranging from 1 to 1400 μM to cover the range below and above the CMC. Above the CMC, the fluorescence yield of ANS increases and the wavelength of maximum emission decreases due to portioning of the fluorescent dye into micelles. Fluorescence yields were recorded on a Fluoroskan Ascent FL (Thermo Scientific) at an excitation wavelength of 355 nm, and an emission wavelength of 460 nm. 6 μg at a concentration of 75.86 μM of ANS were used per sample and measurement.

HeLa (EGFR+) cells = settings: saponin as single compound
Protocol: To extend this test, saponins from other sources were analyzed. A saponin purified from a root extract of Gypsophila elegans M. Bieb. […] FIG. 63C).

A431 (EGFR++) cells = assay: Cell viability, saponin derivative with or without […] EGFdianthin; settings: A431, saponin as single compound
[4] = system: EGFR expressing cells (A431); assay: Cell viability assay (MTS): saponin titrated on fixed 10 pM targeted toxin; format: cell-based; settings: without targeted toxin
HSP27 mRNA in A431 cells = assay: HSP27 mRNA gene silencing analysis; format: cell-based; settings: A431, without oligonucleotide
Text: (§1) RNA from cells was isolated and analysed according to standard protocols (Biorad). qPCR primers that were used are indicated in Table A10.

HeLa cells [5] = assay: Pilot cell viability bioassay, saponin + 1.5 pM dianthin-EGF, 72 h; format: cell-based; settings: 10 microgram/ml saponin + […] dianthin-EGF
Protocol: HeLa cells were incubated for 72 h with the following constructs and cell viability before and after the 72 h-incubation was assessed. In the experiments, cells were exposed to 1.5 pM dianthin-EGF conjugate. A negative control were cells incubated with buffer vehicle and 10 microgram/ml saponin, without dianthin-EGF. Cell viability was set to 100% for the control in which both saponin and EGF-dianthin were omitted. […] Cell viability after 72 h was essentially 0%. For the chemically modified saponin variants, 10 microgram/ml saponin was tested in combination with 1.5 pM dianthin-EGF.

A2058 (EGFR−) cells = assay: Cell viability, saponin derivative with or without […] EGFdianthin; settings: A2058, saponin as single compound
[6] = system: HSP27 mRNA in SK-BR-3 cells; assay: HSP27 mRNA gene silencing analysis; format: cell-based; settings: with and without SO1861-Ald-EMCH, SK-BR-3 (FIG. 58)
Text: as §1

## CC(=O)OC1C(C)OC(OC2C(C)OC(OC(=O)[C@]34CCC(C)(C)CC3C3=CCC5[C@@]6(C)CC[C@H](OC7OC(C(=O)O)C(O)C(OC8OCC(O)C(O)C8O)C7OC7OC(CO)C(O)C(O)C7O)[C@@](C)(/C=N/NC(=O)CCCCCN7C(=O)C[C@H](SCCO)C7=O)C6CC[C@@]5(C)[C@]3(C)C[C@H]4O)C(OC3OC(C)C(OC4OCC(O)C(OC5OC(CO)C(O)C(O)C5O)C4O)C(O)C3O)C2O)C(O)C1OC1OCC(O)C(O)C1O (stereo partly shown) [SO1861-Ald-EMCH-blocked]
[1]
  pIC50: 5.70 to 6.22
Human red blood cells; Homo sapiens, Erythrocyte
  IC50: 300000 nM
Human red blood cells; Homo sapiens, Erythrocyte, read-out: IC50 hemolytic activity
  pIC50: 3.52
Human red blood cells
  hemolytic activity compared with unmodified saponin: less hemolytically active
Human red blood cells; red blood cells, Table A6
  IC50: 300000 nM
HeLa cells [2]; Homo sapiens, HeLa, read-out: IC50 nM (Toxicity)
  IC50: > 100000 nM
HeLa cells [2]; Homo sapiens, HeLa, read-out: IC50 toxicity
  pIC50: < 4.00
HeLa cells [2]
  cytotoxicity compared with unmodified saponin: less cytotoxic
[3]; SO saponins, determined in PBS, Table A7
  CMC: 50 ± 5 µM
[3]
  CMC compared with native (underivatised) saponin: lower CMC values

## CC1OC(OC2C(C)OC(OC(=O)[C@]34CCC(C)(C)CC3C3=CCC5[C@@]6(C)CC[C@H](OC7OC(C(=O)O)C(O)C(OC8OCC(O)C(O)C8O)C7OC7OC(CO)C(O)C(O)C7O)[C@@](C)(CO)C6CC[C@@]5(C)[C@]3(C)C[C@H]4O)C(OC3OC(C)C(OC4OCC(O)C(OC5OC(CO)C(O)C(O)C5O)C4O)C(O)C3O)C2O)C(O)C(OC2OCC(O)C(O)C2O)C1O (stereo partly shown) [Molecule 10]
[1]
  endosomal escape enhancing activity (enhancement of cytotoxicity of ADC / effector molecules): have the capacity to enhance the cytotoxic effect
[3]
  CMC compared with native (underivatised) saponin: increased CMC

## CC(=O)OC1C(C)OC(OC2C(C)OC(OC(=O)[C@]34CCC(C)(C)CC3C3=CCC5[C@@]6(C)CC[C@H](OC7OC(C(=O)O)C(O)C(OC8OCC(O)C(O)C8O)C7OC7OC(CO)C(O)C(O)C7O)[C@@](C)(CO)C6CC[C@@]5(C)[C@]3(C)C[C@H]4O)C(OC3OC(C)C(OC4OCC(O)C(OC5OC(CO)C(O)C(O)C5O)C4O)C(O)C3O)C2O)C(O)C1OC1OCC(O)C(O)C1O (stereo partly shown) [Molecule 6]
[1]
  endosomal escape enhancing activity (enhancement of cytotoxicity of ADC / effector molecules): have the capacity to enhance the cytotoxic effect
[3]
  CMC compared with native (underivatised) saponin: increased CMC

## CC(=O)OC1C(C)OC(OC2C(C)OC(OC(=O)[C@]34CCC(C)(C)CC3C3=CCC5[C@@]6(C)CC[C@H](OC7OC(C(=O)O)C(O)C(OC8OCC(O)C(O)C8O)C7OC7OC(CO)C(O)C(O)C7O)[C@@](C)(/C=N/NC(=O)CCCCCN7C(=O)C=CC7=O)C6CC[C@@]5(C)[C@]3(C)C[C@H]4O)C(OC3OC(C)C(OC4OCC(O)C(OC5OC(CO)C(O)C(O)C5O)C4O)C(O)C3O)C2O)C(O)C1OC1OCC(O)C(O)C1O (stereo partly shown) [SO1861-Ald-EMCH]
HeLa (EGFR+) cells
  general toxicity in absence of EGFdianthin: > 25.000 nM
[1]
  pIC50: 5.70 to 6.22
A431 (EGFR++) cells
  general toxicity in absence of EGFdianthin: > 25.000 nM
[4]
  cell killing activity of saponin alone: no cell killing activity
Human red blood cells
  hemolytic activity compared with unmodified saponin: less hemolytically active
HSP27 mRNA in A431 cells
  HSP27 gene silencing activity of saponin derivative alone: no HSP27 gene silencing activity
HeLa cells [5]
  Cell viability after 72 h: reduced cell viability
HeLa cells [2]
  cytotoxicity compared with unmodified saponin: less cytotoxic
[3]; PBS (Tables A7, A9)
  CMC: > 800 µM
[3]
  CMC compared with native (underivatised) saponin: higher CMC values
A2058 (EGFR−) cells
  general toxicity in absence of EGFdianthin: > 25.000 nM

## CC1OC(OC2C(C)OC(OC(=O)[C@]34CCC(C)(C)CC3C3=CCC5[C@@]6(C)CC[C@H](OC7OC(C(=O)O)C(O)C(OC8OCC(O)C(O)C8O)C7OC7OC(CO)C(O)C(O)C7O)[C@@](C)(C=O)C6CC[C@@]5(C)[C@]3(C)C[C@H]4O)C(OC3OC(C)C(OC4OCC(O)C(OC5OC(CO)C(O)C(O)C5O)C4O)C(O)C3O)C2O)C(O)C(OC2OCC(O)C(O)C2O)C1O (stereo partly shown) [Molecule 8]
[1]
  endosomal escape enhancing activity (enhancement of cytotoxicity of ADC / effector molecules): display activity
[3]
  CMC compared with native (underivatised) saponin: increased CMC

## CC(=O)OC1C(C)OC(OC2C(C)OC(OC(=O)[C@]34CCC(C)(C)CC3C3=CCC5[C@@]6(C)CC[C@H](OC7OC(C(=O)O)C(O)C(OC8OCC(O)C(O)C8O)C7OC7OC(CO)C(O)C(O)C7O)[C@@](C)(C=O)C6CC[C@@]5(C)[C@]3(C)C[C@H]4O)C(OC3OC(C)C(OC4OCC(O)C(OC5OC(CO)C(O)C(O)C5O)C4O)C(O)C3O)C2O)C(O)C1OC1OCC(O)C(O)C1O (stereo partly shown) [SO1861, reference compound]
HeLa (EGFR+) cells
  general toxicity in absence of EGFdianthin: strong cell viability reduction
A431 (EGFR++) cells
  general toxicity in absence of EGFdianthin: strong cell viability reduction
[4]
  cell killing activity of saponin alone: no cell killing activity
HeLa cells [5]
  Cell viability after 72 h: ~0%
[3]; PBS (Tables A7, A9)
  CMC: 185 µM
A2058 (EGFR−) cells
  general toxicity in absence of EGFdianthin: strong cell viability reduction

## CC(=O)OC1C(C)OC(OC2C(C)OC(OC(=O)[C@]34CCC(C)(C)CC3C3=CCC5[C@@]6(C)CC[C@H](OC7OC(C(=O)O)C(O)C(OC8OCC(O)C(O)C8O)C7OC7OC(CO)C(O)C(O)C7O)[C@@](C)(C=O)C6CC[C@@]5(C)[C@]3(C)C[C@H]4O)C(OC3OC(C)C(OC4OCC(O)C(OC5OCC(O)C(O)C5O)C4O)C(O)C3O)C2O)C(O)C1OC(C)=O (stereo partly shown) [GE1741, reference compound]
HeLa (EGFR+) cells
  general toxicity in absence of EGFdianthin: 5.000 nM

## CC(=O)OC1C(C)OC(OC2C(C)OC(OC(=O)C34CCC(C)(C)CC3C3=CCC5C6(C)CCC(OC7OC(C(=O)NC(C)(CO)CO)C(O)C(OC8OCC(O)C(O)C8O)C7OC7OC(CO)C(O)C(O)C7O)C(C)(C=NNC(=O)CCCCCN7C(=O)C=CC7=O)C6CCC5(C)C3(C)CC4O)C(OC3OC(C)C(OC4OCC(O)C(OC5OC(CO)C(O)C(O)C5O)C4O)C(O)C3O)C2O)C(O)C1OC1OCC(O)C(O)C1O (stereo not shown) [Molecule 14]
[1]
  endosomal escape enhancing activity (enhancement of cytotoxicity of ADC / effector molecules): have the capacity to enhance the cytotoxic effect

## CC1OC(OC2C(C)OC(OC(=O)C34CCC(C)(C)CC3C3=CCC5C6(C)CCC(OC7OC(C(=O)O)C(O)C(OC8OCC(O)C(O)C8O)C7OC7OC(CO)C(O)C(O)C7O)C(C)(C=NNC(=O)CCCCCN7C(=O)C=CC7=O)C6CCC5(C)C3(C)CC4O)C(OC3OC(C)C(OC4OCC(O)C(OC5OC(CO)C(O)C(O)C5O)C4O)C(O)C3O)C2O)C(O)C(OC2OCC(O)C(O)C2O)C1O (stereo not shown) [Molecule 15]
[1]
  endosomal escape enhancing activity (enhancement of cytotoxicity of ADC / effector molecules): have the capacity to enhance the cytotoxic effect
[3]
  CMC compared with native (underivatised) saponin: increased CMC

## CC(=O)OC1C(C)OC(OC2C(C)OC(OC(=O)C34CCC(C)(C)CC3C3=CCC5C6(C)CCC(OC7OC(C(=O)O)C(O)C(OC8OCC(O)C(O)C8O)C7OC7OC(CO)C(O)C(O)C7O)C(C)(C=NNC(=O)CCOCCOCCOCCOCCN=[N+]=[N-])C6CCC5(C)C3(C)CC4O)C(OC3OC(C)C(OC4OCC(O)C(OC5OC(CO)C(O)C(O)C5O)C4O)C(O)C3O)C2O)C(O)C1OC1OCC(O)C(O)C1O (stereo not shown)
HeLa (EGFR+) cells
  general toxicity in absence of EGFdianthin: above 10.000 nM
A431 (EGFR++) cells
  general toxicity in absence of EGFdianthin: above 10.000 nM

## HSP27LNA: HSP27 LNA oligo 5′-ggcacagccagtggcg-3′ (GGCACAGCCAGTGGCG; LNA-modified, pattern not given here)
[6]
  endosomal escape/gene silencing enhancement factor compared with HSP27BNA: comparable
